Laboratory results published in EP0074229A1, “Triazole gastric anti-secretory agents” (PFIZER INC., priority 1981, dated 1983).

What was measured:
gastric acid secretion = assay: gastric antisecretory activity in pentagastrin-stimulated Heidenhain pouch dogs; assay type: in vivo; settings: conscious Heidenhain pouch dogs, pentagastrin infusion, drug given intravenously; for inhibition in vivo at up to 10 mg/kg: Canis lupus familiaris, iv, doses of 10 mg/kg or less, lowest acid output after drug vs mean output before drug; for inhibition of acid: dosage of 1 mg/kg
Excerpt: The activity of the compounds of the present invention as antisecretory agents and histamine-H2 antagonists may be determined by standard pharmacological tests, including for example (1) measuring their ability to antagonize the actions of histamine which are not blocked by an antihistamine such as mepyramine and (2) measuring their ability to inhibit gastric acid secretion in the stomachs of Heidenhain pouch dogs that had previously been treated with pentagastrin in order to stimulate the secretion of gastric acid.
The gastric antisecretory activity of compounds of the present invention was determined in overnight fasted, conscious Heidenhain pouch dogs. Pentagastrin (Peptavlon-Ayerst) was used to stimulate acid output by continuous infusion into a superficial leg vein at doses earlier determined to stimulate near maximal acid output from the gastric pouch. Gastric juice was collected at 30 minute intervals following the start of a pentagastrin infusion and measured to the nearest 0.1 ml. Ten collections were taken for each dog during an experiment. Acid concentration was determined by titrating 1.0 ml of gastric juice to pH 7.4 with 0.1N sodium hydroxide using an Autoburette and a glass electrode pH meter (Radiometer).
[…] Gastric acid . antisecxetory effects were calculated by comparing the lowest acid output after drug administration with the mean acid output immediately before drug.

H2-receptor = target: T1, H2-receptor (Cavia porcellus, UniProt P47747); assay: histamine-H2 antagonist activity in isolated guinea pig right atria (histamine dose-response, dose-ratios, pA2); assay type: cell-based, Guinea pigs; settings: antagonism of histamine-stimulated atrial rate, Krebs-Henseleit buffer pH 7.4, 32°
T1 construct: from tissue; host or cells: isolated guinea pig right atria
T1 sequence (P47747 whole entry): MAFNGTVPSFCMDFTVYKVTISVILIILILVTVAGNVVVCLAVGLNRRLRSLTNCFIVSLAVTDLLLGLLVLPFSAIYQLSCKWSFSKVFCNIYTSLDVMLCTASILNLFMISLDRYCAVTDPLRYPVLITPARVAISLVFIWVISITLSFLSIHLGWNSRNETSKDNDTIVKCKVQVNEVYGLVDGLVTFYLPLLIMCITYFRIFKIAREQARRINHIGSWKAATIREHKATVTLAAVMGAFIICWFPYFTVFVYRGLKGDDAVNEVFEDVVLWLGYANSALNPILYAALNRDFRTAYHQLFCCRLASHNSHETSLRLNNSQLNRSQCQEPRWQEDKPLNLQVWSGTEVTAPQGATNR
Procedure: The histamine-H2 antagonist activity of compounds of the present invention was determined by the following procedure: • Guinea pigs are killed rapidly with a blow to the head, the heart removed and the right atria dissected free. […] Individual atrial contractions are followed with a force-displacement transducer connected to a cardiotachometer and Grass polygraph recorder. After obtaining a dose-response curve to histamine, the bath containing each atrium is flushed several times with fresh buffer and the atria re-equilibrated to basal rates. Following the return to basal rate, test compounds are added at selected final concentrations and the histamine dose-response curve is again determined in the presence of antagonist. Results are-expressed as dose-ratios, the ratio of histamine concentrations required to produce one-half of maximal stimulation in the presence and absence of antagonist, and the apparent dissociation constant of the H2-receptor antagonist pA2 is determined.

| Kb (H2-receptor) | Structure (SMILES) | inhibition in vivo at up to 10 mg/kg (gastric acid secretion) | inhibition of acid (gastric acid secretion) |
| --- | --- | --- | --- |
|  | CNc1cc(-c2nc(C)n[nH]2)ccn1 [Example 2, 3'-Methyl-5'-(2-methylamino-4-pyridyl)-1',2',4'-triazole] | > 50% |  |
| ≤ 1000 nM | CCNc1cc(-c2nc(C)n[nH]2)ccn1 [Example 3, 3'-Methyl-5'-(2-ethylamino-4-pyridyl)-1',2',4'-triazole] | > 50% |  |
| ≤ 1000 nM | CCNc1cc(-c2nc(CC)n[nH]2)ccn1 [Example 6, 3'-Ethyl-5'-(2-ethylamino-4-pyridyl)-1',2',4'-triazole hemi-hydrate] |  |  |
|  | CCNc1cc(-c2nc(CO)n[nH]2)ccn1 [Example 8, 3'-Hydroxymethyl-5'-(2-ethylamino-4-pyridyl)-l',2',4'-triazole] | > 50% |  |
| ≤ 1000 nM | CCNc1cc(-c2nc(CCNC(=O)C=Cc3cnc(C)s3)n[nH]2)ccn1 [Example 12, N-[3-(2-methyl-5-thiazolyl)acryloyl]-2-[3'-(5'-(2-ethylamino-4-pyridyl)-1',2',4'-triazolyl)]ethylamine] | > 50% | greater than 50% |
|  | CCNc1cc(-c2nc(CCNC(=O)COc3ccccc3)n[nH]2)ccn1 [Example 17, N-Phenoxyacetyl-2-(3'-(5'-(2-ethylamino-4-pyridyl)-1',2',4'-triazolyl))'ethylamine hemihydrate] | > 50% |  |
|  | CCNc1cc(-c2n[nH]c(CCNC(=O)CCc3ccccc3)n2)ccn1 [Example 20, N-(3-Phenylpropionyl)-2-(3'-(5'-(2-ethylamino-4-pyridyl)-1',2',4'-triazolyl))ethylamine] | > 50% |  |
|  | CCNc1cc(-c2n[nH]c(CCNC(=O)COc3cccnc3)n2)ccn1 [Example 21, N-(3-Pyridyloxyacetyl)-2-(3'-(5'-(2-ethylamino-4-pyridyl)-1',2',4'-triazolyl))ethylamine bishydrate] | > 50% |  |
|  | CCNc1cc(-c2n[nH]c(CCNC(=O)c3ccc(O)nc3)n2)ccn1 [Example 24, N-(6-Hydroxynicotinoyl)-2-(3'-(5'-(2-ethylamino-4-pyridyl)-1',2',4'-triazolyl))ethylamine monohydrate] | > 50% |  |
|  | CCNc1cc(-c2n[nH]c(CCNC(=O)c3cccc(OC)c3)n2)ccn1 [Example 26, N-(3-Methoxybenzoyl)-2-(3'-(5'-(2-ethylamino-4-pyridyl)-1',2',4'-triazolyl))ethylamine] | > 50% |  |
|  | CCNc1cc(C(=O)NCCc2nc(-c3ccnc(NCC)c3)n[nH]2)ccn1 [Example 27, N-(2-Ethylaminoisonicotinoyl)-2-(3'-(5'-(2-ethylamino-4-pyridyl)-1',2',4'-triazolyl))ethylamine] | > 50% |  |
| ≤ 1000 nM | CCNc1cc(-c2n[nH]c(CCNC(=O)c3ccc(CN(C)C)o3)n2)ccn1 [Example 28] |  |  |
| ≤ 1000 nM | CCNc1cc(-c2n[nH]c(CCNC(=O)c3csc(N=C(N)N)n3)n2)ccn1 [Example 29] |  |  |
| ≤ 1000 nM | CCNc1cc(-c2n[nH]c(CCNC(=O)CCc3cccnc3)n2)ccn1 [Example 31, N-(3-Pyridylpropionoyl)-2-(3'-(5'-(2-ethylamino-4-pyridyl)-1',2',4'-triazolyl))ethylamine] | > 50% |  |
| ≤ 1000 nM | CCNc1cc(-c2n[nH]c(CCNC(=O)c3cccnc3)n2)ccn1 [Example 34, N-Nicotinoyl-2-(3'-(5'-(2-ethylamino-4-pyridyl)-1',2',4'-triazolyl))ethylamine] |  |  |
|  | CCNc1cc(-c2n[nH]c(CCNC(=O)c3ccncc3)n2)ccn1 [Example 35, N-(Isonicotinoyl)-2-(3'-(5'-(2-ethylamino-4-pyridyl)-1',2',4'-triazolyl))ethylamine] | > 50% |  |
|  | CCNc1cc(-c2n[nH]c(CCNC(N)=O)n2)ccn1 [Example 36, N-(2-(3'-(5'-(2-Ethylamino-4-pyridyl)-1',2',4'-triazolyl))-ethyl)urea hydrate] | > 50% |  |
| ≤ 1000 nM | CCNc1cc(-c2n[nH]c(CCNC(=NC#N)NC)n2)ccn1 [Example 39, N-Cyano-N'-(2-(3'-(5'-(2-ethylamino-4-pyridyl)-1',2',4'-triazolyl))ethyl)-N"-methylguanidine] |  |  |
| ≤ 1000 nM | CCNc1cc(-c2n[nH]c(CCNC(=S)NC)n2)ccn1 [Example 41, N'-(2-(3'-(5'-(2-Ethylamino-4-pyridyl)-1',2',4'-triazolyl))-ethyl)-N'-methylthiourea] |  | greater than 50% |
